Assay results as given in ChEMBL document CHEMBL1177713, “Discovery of 3-[2-(imidazo[1,2-b]pyridazin-3-yl)ethynyl]-4-methyl-N-{4-[(4-methylpiperazin-1-yl)methyl]-3-(trifluoromethyl)phenyl}benzamide (AP24534), a potent, orally active pan-inhibitor of breakpoint cluster region-abelson (BCR-ABL) kinase including the T315I gatekeeper mutant” (J Med Chem, 2010).

Columns and labels:
K562 = assay: cells; conditions: Homo sapiens, K562, 72 h
Description: Antiproliferative activity against human K562 cells expressing wild type ABL after 3 days by MTS assay

BaF3 [1] = assay: cells; conditions: Mus musculus, BaF3, 72 h
Description: Antiproliferative activity against mouse BA/F3 cells expressing ABL T315I mutant after 3 days by MTS assay

Mus musculus [2] = assay: Plasma concentmouseion in CD mouse at 30 mg/kg, po after 2 hrs by LC-MS/MS analysis
[3] = Tmax in CD rat at 15 mg/kg, po by LC-MS/MS analysis; format: ADME, organism-based; set-up: dose 15 mg/kg, route oral; conditions: in vivo
Rattus norvegicus [4] = assay: Dose normalized AUC (0 to 24 hrs) in CD rat at 15 mg/kg, po by LC-MS/MS analysis; format: ADME, organism-based; set-up: time < 24 hr, dose 15 mg/kg, route oral; conditions: in vivo
BaF3 [5] = assay: cells; conditions: Mus musculus, BaF3, 72 h; remark: listed apart in the source
Description: Antiproliferative activity against mouse BA/F3 cells after 3 days by MTS assay

Mus musculus [6] = assay: Plasma concentration in mouse at 30 mg/kg, po after 24 hrs by LC-MS/MS analysis
[7] = Half life in CD rat at 5 mg/kg, iv by LC-MS/MS analysis; format: ADME, organism-based; set-up: dose 5 mg/kg, route intravenous; conditions: in vivo
[8] = Volume of distribution in CD rat at 5 mg/kg, iv by LC-MS/MS analysis; format: ADME, organism-based; set-up: dose 5 mg/kg, route intravenous; conditions: in vivo
BaF3 [9] = assay: cells; conditions: Mus musculus, BaF3, 72 h; remark: listed apart in the source
Description: Antiproliferative activity against mouse BA/F3 cells expressing wild type ABL after 3 days by MTS assay

Mus musculus [10] = assay: Plasma concentmouseion in CD mouse at 30 mg/kg, po after 6 hrs by LC-MS/MS analysis
[11] = Oral bioavailability in CD rat at 15 mg/kg by LC-MS/MS analysis; format: ADME, organism-based; conditions: in vivo
[12] = Clearance in CD rat at 5 mg/kg, iv by LC-MS/MS analysis; format: ADME, organism-based; set-up: dose 5 mg/kg, route intravenous; conditions: in vivo
[13] = Half life in CD rat at 15 mg/kg, po by LC-MS/MS analysis; format: ADME, organism-based; set-up: dose 15 mg/kg, route oral; conditions: in vivo
[14] = (§1) Cmax in CD rat at 15 mg/kg, po by LC-MS/MS analysis; format: ADME, organism-based; set-up: dose 15 mg/kg, route oral; conditions: CD, in vivo
Rattus norvegicus [15] = assay: as §1; format: ADME, organism-based; set-up: dose 15 mg/kg, route oral; conditions: in vivo, BLD = below limit of detection

Structure (SMILES) | IC50 (K562) [nM] | IC50 (BaF3 [1]) [nM] | concentration at 2 h (Mus musculus [2]) [ng/mL] | Tmax [3] [h] | AUC (Rattus norvegicus [4]) [ng·h/mL/mg/kg] | IC50 (BaF3 [5]) [nM] | concentration at 24 h (Mus musculus [6]) [ng/mL] | half-life [7] [h] | Vd [8] [L/kg] | IC50 (BaF3 [9]) [nM] | concentration at 6 h (Mus musculus [10]) [ng/mL] | bioavailability [11] [%] | clearance [12] [mL/min/kg] | half-life [13] [h] | Cmax [14] [ng/mL] | AUC (Rattus norvegicus [4]; BLD = below limit of detection) | Cmax (Rattus norvegicus [15])
Cc1cn(-c2cc(NC(=O)c3ccc(C)c(/C=C/n4cnc5c(N)ncnc54)c3)cc(C(F)(F)F)c2)cn1 | 1.4 | 295 | – | – | – | – | – | – | – | – | – | – | – | – | – | – | –
CCN1CCN(Cc2ccc(NC(=O)c3ccc(C)c(C#Cc4cnc5cccnn45)c3)cc2C(F)(F)F)CC1 | – | 7.3 | 622 | 6 | 518 | 1160 | 8.8 | 8.9 | 13.1 | 1 | 387 | 53 | 17 | 22.3 | 215 | – | –
Cc1ccc(C(=O)Nc2ccc(CN3CCN(C)CC3)c(C(F)(F)F)c2)cc1C#Cc1cnc2[nH]c(=O)[nH]c2c1 | – | 31 | – | – | – | 1860 | – | 5 | 17.7 | 3.9 | – | – | 40.7 | – | – | BLD | BLD
CN1CCN(Cc2ccc(NC(=O)c3ccc(F)c(C#Cc4cnc5cccnn45)c3)cc2C(F)(F)F)CC1 | – | 35 | 2480 | 6 | 1707.5 | 6290 | 163 | 5.9 | 3.1 | 6.1 | 2100 | 62.3 | 6.17 | 11.6 | 1180 | – | –
